# Legend:
# [1] = biological target: PKB (Homo sapiens, UniProt P31751); assay: Activity against the kinase PKB (method not given); settings: compound and its acid addition salts
# [2] = biological target: T1, protein kinase B (PKB), fusion protein PKB-PIF (Homo sapiens, UniProt P31751); assay: PKB kinase inhibitory activity, in vitro radiometric assay; type: biochemical; settings: (radiometric) binding assay, relative to the other enantiomer
# T1 construct: made in house
# From the text: The inhibition of protein kinase B (PKB) activity by compounds can be determined essentially as described by Andjelkovic et al. (Mol. Cell. Biol. 19, 5061-5072 (1999)) but using a fusion protein described as PKB-PIF and described in full by Yang et al (Nature Structural Biology 9, 940-944 (2002)). The protein is purified and activated with PDK1 as described by Yang et al. The peptide AKTide-2T (H-A-R—K—R-E-R-T-Y—S—F-G-H—H-A-OH) obtained from Calbiochem (#123900) is used as a substrate. A final concentration of 0.6 nM enzyme is used in a buffer that includes 20 mM MOPS pH 7.2, 30 μM ATP/γ^33P-ATP and 25 μM substrate. Compounds are added in DMSO solution to a final DMSO concentration of 2.5%. The reaction is allowed to proceed for 20 minutes before addition of excess orthophosphoric acid to quench activity. The reaction mixture is transferred to a phosphocellulose filter plate where the peptide binds and the unused ATP is washed away. After washing, scintillant is added and the incorporated activity measured by scintillation counting.
# [3] = test system: phosphorylation of GSK3β on serine 9 in U87MG cells; assay: Cell based phospho-Ser9 GSK3β ELISA (mechanistic cellular assay); settings: for activity in mechanistic cellular ELISA assay: result in words
# Method: The effect on inhibiting PKB in U87MG cells is determined by the ability of compounds to inhibit phosphorylation of the direct downstream substrate GSK3β on serine 9. Cells are plated in 96 well plates and allowed to recover overnight prior to addition of the inhibitor compound for 1 hour. After 1 hour, cell are fixed and blocked with 3% paraformaldehyde, 0.25% gluteraldehyde, 0.25% Triton X100 and 5% Marvel in TBS-T. Following this cells are incubated with primary antibody directed to the phosphorylated form of GSK3β (Cell Signaling) overnight at 4° C. After washing, cells are incubated with secondary antibody using the DELFIA reagents (Eu—N1 anti-rabbit IgG antibody) for 1 h, and following enhancement plates are read on a time-resolved fluorescence reader at excitation 340 nm and emission 640 nm. All cells are obtained from ECACC (European Collection of Cell Cultures).
# 1. U87MG cells plated at 12,500 cells/well in 160 ul media/well in a 96 well plate
# 2. Incubate for 24 hours at 37° C.
# 3. Treat cells with the inhibitor and DMSO control
# 4. Incubate for 1 hour at 37° C.
# 5. Media flicked from the plate and blot on paper
# 6. 100 μl fixing solution added to each well (3% paraformaldehyde, 0.25% gluteraldehyde, 0.25% Triton X100)
# 7. Incubate for 30 minutes at 37° C.
# 8. Wash 1× with water/0.1% Tween20
# 9. Block with 100 μl 5% milk/TBS-T
# 10. Incubate for 30 minutes at 37° C.
# 11. 100 μl primary antibody diluted in 5% milk/TBS-T added to each well (CST #9336 Phospho-Ser9 GSK3β antibody used at 1:250)
# • include a column control with no 1 ab—just 5% milk/TBS-T • can also include a column of Zymed rabbit IgG (02-6102-5 mg/mL) control diluted in 5% milk/TBS-T to the same concentration as the phospho-Ser9 GSK3β if required 12. Incubate overnight at 4° C. 13. Wash 3× with water/0.1% Tween20 14. 100 μl secondary antibody diluted in Delfia Assay Buffer added to each well (Delfia Eu—N1 anti-rabbit IgG antibody used at 0.30 μg/ml final conc) 15. Incubate for 1 hour at 37° C. 16. Wash 3× with water/0.1% Tween20 17. 100 μl Delfia Enhancement Solution added to each well 18. Shake on plate shaker for 15 minutes 19. Read on Delfia programme (excitation 340 nm−emission […])=Europium counts 20. Wash 1× with water/0.1% Tween 20 21. 200 μl BCA solution added per well (BCA with 1:50 Copper II Sulfate) 22. Incubate for 30 minutes at 37° C. 23. Read at absorbance 562 nm=protein concentration
# [4] = test system: ROCK; settings: cited from earlier work
# [5] = biological target: T2, PKA catalytic domain (Homo sapiens, UniProt P17612); assay: PKA kinase inhibitory activity, radiometric assay; type: biochemical
# T2 construct: using the PKA catalytic domain from Upstate Biotechnology (#14-440); purchased Upstate Biotechnology 14-440
# Method: A final concentration of 1 nM enzyme is used in a buffer that includes 20 mM MOPS pH 7.2, 40 μM ATP/γ^33P-ATP and […] substrate. Compounds are added in dimethylsulphoxide (DMSO) solution to a final DMSO concentration of 2.5%. The reaction is allowed to proceed for 20 minutes before addition of excess orthophosphoric acid to quench activity. Unincorporated γ^33P-ATP is then separated from phosphorylated proteins on a Millipore MAPH filter plate. The plates are washed, scintillant is added and the plates are then subjected to counting on a Packard Topcount.
# [6] = biological target: T3, CYP450 1A2 (Homo sapiens, UniProt P05177); assay: Potency against cytochrome P450 1A2 (Vivid screening kit); type: in vitro ADME; settings: tested at a concentration of 10 μM
# T3 construct: purchased Invitrogen (Paisley, UK), Pan Vera Vivid screening kits; host or cells: baculosomes
# T3 sequence (P05177 1-516): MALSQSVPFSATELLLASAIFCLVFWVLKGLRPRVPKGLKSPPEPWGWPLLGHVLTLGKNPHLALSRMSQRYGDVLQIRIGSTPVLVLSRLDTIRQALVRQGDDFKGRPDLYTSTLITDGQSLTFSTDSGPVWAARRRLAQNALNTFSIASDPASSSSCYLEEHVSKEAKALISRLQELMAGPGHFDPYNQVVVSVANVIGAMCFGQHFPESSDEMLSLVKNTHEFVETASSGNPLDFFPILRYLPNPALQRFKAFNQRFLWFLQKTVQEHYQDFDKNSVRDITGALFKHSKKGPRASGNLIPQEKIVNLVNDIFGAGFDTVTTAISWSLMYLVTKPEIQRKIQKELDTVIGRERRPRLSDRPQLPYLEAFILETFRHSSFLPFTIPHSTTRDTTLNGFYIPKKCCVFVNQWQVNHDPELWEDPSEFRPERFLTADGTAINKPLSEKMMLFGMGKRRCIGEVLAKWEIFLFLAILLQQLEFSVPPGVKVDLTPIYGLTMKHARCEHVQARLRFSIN
# Method: (§1) The potency of the compound of Example 1 against cytochrome P450 (CYP450) enzymes 1A2, 2C9, 2C19, 3A4 and 2D6 was determined using the Pan Vera Vivid C450 screening kits available from Invitrogen (Paisley, UK). The CYP450s were supplied in the form of baculosomes containing the CYP450 and NADPH reductase and the substrates used were the fluorescent Vivid substrates. The final reaction mixtures were as follows:
# 100 mM potassium phosphate, pH 8, 1% acetonitrile, 2 μM 1A2 Blue vivid substrate, 100 μM NADP^+, 4 nM CYP450 1A2, 2.66 mM glucose-6-phosphate, 0.32 U/ml glucose-6-phosphate dehydrogenase.
# (§2) Fluorescence was monitored for 20 minutes at 30 second intervals on a Fluoroskan fluorescence plate reader. The excitation and emission wavelengths were 390 nm and 460 nm for 1A2, 2C19 and 3A4, 390 nm and 485 nm for 2D6 and 485 nm and 530 nm for 2C9. Initial rates were determined from progress curves.
# (§3) The test compound was made up in acetonitrile and tested against the CYP450s at a concentration of 10 μM.
# [7] = biological target: T4, CYP450 2C9 (Homo sapiens, UniProt P11712); assay: Potency against cytochrome P450 2C9 (Vivid screening kit); type: in vitro ADME; settings: tested at a concentration of 10 μM
# T4 construct: purchased Invitrogen (Paisley, UK), Pan Vera Vivid screening kits; host or cells: baculosomes
# T4 sequence (P11712 whole entry): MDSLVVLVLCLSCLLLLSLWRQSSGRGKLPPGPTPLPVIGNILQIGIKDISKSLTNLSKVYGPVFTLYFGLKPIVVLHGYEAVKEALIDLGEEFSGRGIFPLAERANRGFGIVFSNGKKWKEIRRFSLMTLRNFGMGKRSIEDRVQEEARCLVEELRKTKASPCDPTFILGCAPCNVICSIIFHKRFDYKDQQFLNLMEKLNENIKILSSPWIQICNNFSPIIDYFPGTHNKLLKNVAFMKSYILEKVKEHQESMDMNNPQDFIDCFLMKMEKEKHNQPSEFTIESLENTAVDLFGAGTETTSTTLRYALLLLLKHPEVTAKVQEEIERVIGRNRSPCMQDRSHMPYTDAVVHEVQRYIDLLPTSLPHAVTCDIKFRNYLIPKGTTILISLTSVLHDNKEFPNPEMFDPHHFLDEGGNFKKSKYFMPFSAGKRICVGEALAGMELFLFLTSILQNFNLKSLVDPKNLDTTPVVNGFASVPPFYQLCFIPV
# Method: as §1
# 50 mM potassium phosphate, pH 8, 1% acetonitrile, 2 μM Green vivid substrate, 100 μM NADP^+, 8 nM CYP450 2C9, 2.66 mM glucose-6-phosphate, 0.32 U/ml glucose-6-phosphate dehydrogenase.
# as §2, §3
# [8] = biological target: T5, CYP450 2C19 (Homo sapiens, UniProt P33261); assay: Potency against cytochrome P450 2C19 (Vivid screening kit); type: in vitro ADME; settings: tested at a concentration of 10 μM
# T5 construct: purchased Invitrogen (Paisley, UK), Pan Vera Vivid screening kits; host or cells: baculosomes
# Method: as §1
# 50 mM potassium phosphate, pH 8, 1% acetonitrile, 8 μM Blue vivid substrate, 100 μM NADP^+, 4 nM CYP450 2C19, 2.66 mM glucose-6-phosphate, 0.32 U/ml glucose-6-phosphate dehydrogenase.
# as §2, §3
# [9] = biological target: T6, CYP450 2D6 (Homo sapiens, UniProt P10635); assay: Potency against cytochrome P450 2D6 (Vivid screening kit); type: in vitro ADME; settings: tested at a concentration of 10 μM
# T6 construct: purchased Invitrogen (Paisley, UK), Pan Vera Vivid screening kits; host or cells: baculosomes
# T6 sequence (P10635 whole entry): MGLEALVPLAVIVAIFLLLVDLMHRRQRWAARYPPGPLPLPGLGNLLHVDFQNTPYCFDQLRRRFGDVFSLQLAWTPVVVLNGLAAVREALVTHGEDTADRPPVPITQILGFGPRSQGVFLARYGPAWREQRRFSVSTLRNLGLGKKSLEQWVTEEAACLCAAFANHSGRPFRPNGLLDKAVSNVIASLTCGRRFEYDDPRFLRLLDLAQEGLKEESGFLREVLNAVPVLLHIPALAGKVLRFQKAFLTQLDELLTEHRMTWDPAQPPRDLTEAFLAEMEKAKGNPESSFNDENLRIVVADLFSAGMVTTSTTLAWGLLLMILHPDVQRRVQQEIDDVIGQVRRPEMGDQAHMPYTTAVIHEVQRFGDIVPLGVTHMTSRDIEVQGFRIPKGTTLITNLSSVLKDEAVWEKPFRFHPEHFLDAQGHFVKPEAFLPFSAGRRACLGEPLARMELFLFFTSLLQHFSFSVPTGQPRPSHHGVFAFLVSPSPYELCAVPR
# Method: as §1
# 100 mM potassium phosphate, pH 8, 1% acetonitrile, 5 μM 2D6 Blue vivid substrate, 100 μM NADP^+, 16 nM CYP450 2D6, 2.66 mM glucose-6-phosphate, 0.32 U/ml glucose-6-phosphate dehydrogenase.
# as §2, §3
# [10] = biological target: ROCK-II (h) (Homo sapiens, UniProt O75116); assay: ROCK-II (h) assay; type: biochemical; settings: below the limit of the assay
# ROCK-II (h), sequence (O75116 whole entry): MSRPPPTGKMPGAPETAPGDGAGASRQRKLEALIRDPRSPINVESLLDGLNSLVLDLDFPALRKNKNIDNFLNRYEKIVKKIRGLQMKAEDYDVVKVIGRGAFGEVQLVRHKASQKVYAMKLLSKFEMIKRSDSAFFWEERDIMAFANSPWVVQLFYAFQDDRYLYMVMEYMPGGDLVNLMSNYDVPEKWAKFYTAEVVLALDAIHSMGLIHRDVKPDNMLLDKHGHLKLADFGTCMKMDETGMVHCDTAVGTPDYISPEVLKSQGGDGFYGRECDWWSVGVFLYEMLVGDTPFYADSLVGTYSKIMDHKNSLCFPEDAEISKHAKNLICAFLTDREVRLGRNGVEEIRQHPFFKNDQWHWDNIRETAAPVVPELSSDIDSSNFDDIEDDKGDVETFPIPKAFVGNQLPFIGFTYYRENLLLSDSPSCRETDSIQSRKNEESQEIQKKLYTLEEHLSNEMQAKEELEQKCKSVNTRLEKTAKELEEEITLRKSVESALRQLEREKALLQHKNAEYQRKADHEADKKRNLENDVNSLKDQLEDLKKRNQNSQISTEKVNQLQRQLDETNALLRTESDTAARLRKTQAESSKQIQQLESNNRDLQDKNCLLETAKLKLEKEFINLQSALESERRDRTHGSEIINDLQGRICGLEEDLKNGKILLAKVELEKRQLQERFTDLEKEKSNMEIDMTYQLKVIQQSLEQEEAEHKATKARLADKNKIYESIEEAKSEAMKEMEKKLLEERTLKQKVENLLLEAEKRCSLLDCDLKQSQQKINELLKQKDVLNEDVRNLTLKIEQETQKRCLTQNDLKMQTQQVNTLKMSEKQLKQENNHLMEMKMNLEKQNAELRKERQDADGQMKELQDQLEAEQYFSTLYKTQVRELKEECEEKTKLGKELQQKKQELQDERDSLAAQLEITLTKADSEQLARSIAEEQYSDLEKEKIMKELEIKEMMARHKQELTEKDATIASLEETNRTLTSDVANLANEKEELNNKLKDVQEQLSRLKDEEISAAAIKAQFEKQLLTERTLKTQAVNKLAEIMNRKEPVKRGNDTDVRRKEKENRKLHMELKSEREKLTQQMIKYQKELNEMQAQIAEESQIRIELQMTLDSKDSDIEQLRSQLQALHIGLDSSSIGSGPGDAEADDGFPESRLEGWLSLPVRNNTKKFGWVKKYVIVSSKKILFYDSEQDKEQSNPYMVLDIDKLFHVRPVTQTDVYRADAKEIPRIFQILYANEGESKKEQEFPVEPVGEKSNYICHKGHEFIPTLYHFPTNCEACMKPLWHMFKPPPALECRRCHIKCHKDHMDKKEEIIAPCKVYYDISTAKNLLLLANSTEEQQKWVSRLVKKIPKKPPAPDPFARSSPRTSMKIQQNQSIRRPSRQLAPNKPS
# Method: In a final reaction volume of 25 μl ROCK-II (h) (5-10 mU) is incubated with 50 mM Tris pH 7.5, 0.1 mM EGTA, 30 μM […], 10 mM MgAcetate and [γ-^33P-ATP] (specific activity approx. 500 cpm/pmol, concentration as required). The reaction is initiated by the addition of the MgATP mix. After incubation for 40 minutes at room temperature, the reaction is stopped by the addition of 5 μl of a 3% phosphoric acid solution. 10 μl of the reaction is then spotted onto a P30 filtermat and washed three times for 5 minutes in 75 mM phosphoric acid and once in methanol prior to drying and scintillation counting.
# [11] = biological target: T7, P70S6 kinase (T412E) (Homo sapiens, UniProt P23443, T412E); assay: p70S6K radiometric assay; type: biochemical; settings: approximately 15 μM ATP
# T7 construct: purchased Upstate 14-486
# T7 sequence (P23443 1-421 T412E limits assumed): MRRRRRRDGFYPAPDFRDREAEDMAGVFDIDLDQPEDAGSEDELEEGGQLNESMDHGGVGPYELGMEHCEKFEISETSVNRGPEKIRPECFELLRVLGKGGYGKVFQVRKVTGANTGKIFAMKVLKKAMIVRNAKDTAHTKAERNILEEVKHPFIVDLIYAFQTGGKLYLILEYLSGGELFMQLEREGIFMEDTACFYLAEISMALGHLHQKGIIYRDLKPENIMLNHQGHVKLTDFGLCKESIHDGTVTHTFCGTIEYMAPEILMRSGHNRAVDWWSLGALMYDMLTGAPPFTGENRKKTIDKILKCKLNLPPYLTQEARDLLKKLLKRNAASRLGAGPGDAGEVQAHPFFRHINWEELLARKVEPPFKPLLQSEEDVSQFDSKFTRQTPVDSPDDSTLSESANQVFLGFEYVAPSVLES
# Method: P70S6 enzyme is bought from Upstate and used at 2 nM in the assay.
# The substrate S6 cocktail ([…]) is used at […] (Km has not been determined). In the phosphoryl transfer reaction, the ^33P-γ phosphate from ATP is transferred to the serine residue. The reaction mixture is transferred to a phosphocellulose filter plate where the peptide binds and the unused ATP is washed away. After washing, scintillant is added and the incorporated activity measured by scintillation counting.
# S6 kinase substrate cocktail from Upstate (#20-122)
# Assay Buffer 10 mM MOPS pH 7.0
# • 0.1 mg/ml BSA • 0.001% Brij-35 • 0.5% glycerol • 0.2 mM EDTA • 10 mM MgCl2 • 0.01% β-mercaptoethanol • Made as a 10× stock, stored at […] in 2 ml aliquots • 15 μM ATP
# Compounds—prepare a dilution curve in DMSO in a polypropylene 96 well plate to 40× final assay concentration (final DMSO 2.5%).
# • 5 μl compound • 10 μl substrate mix • 10 μl enzyme mix
# Final ATP concentration is approximately 15 μM. KM for ATP calculated to 47 uM radiometrically. Controls are “no compound” (DMSO only) and “no enzyme” (use 10 μl of the enzyme mix prior to adding enzyme). Cover with a plate seal (TopSeal A—Packard) or plastic lid from filter plate (moderate radiation barrier). Mix by gentle shaking. Incubate at room temperature for 50 minutes. Stop the reaction by adding 20 μl of 2% orthophosphoric acid. […]
# [12] = biological target: hERG K+ ion channel (Homo sapiens, UniProt Q12809); assay: hERG activity
# hERG K+ ion channel, sequence (Q12809 whole entry): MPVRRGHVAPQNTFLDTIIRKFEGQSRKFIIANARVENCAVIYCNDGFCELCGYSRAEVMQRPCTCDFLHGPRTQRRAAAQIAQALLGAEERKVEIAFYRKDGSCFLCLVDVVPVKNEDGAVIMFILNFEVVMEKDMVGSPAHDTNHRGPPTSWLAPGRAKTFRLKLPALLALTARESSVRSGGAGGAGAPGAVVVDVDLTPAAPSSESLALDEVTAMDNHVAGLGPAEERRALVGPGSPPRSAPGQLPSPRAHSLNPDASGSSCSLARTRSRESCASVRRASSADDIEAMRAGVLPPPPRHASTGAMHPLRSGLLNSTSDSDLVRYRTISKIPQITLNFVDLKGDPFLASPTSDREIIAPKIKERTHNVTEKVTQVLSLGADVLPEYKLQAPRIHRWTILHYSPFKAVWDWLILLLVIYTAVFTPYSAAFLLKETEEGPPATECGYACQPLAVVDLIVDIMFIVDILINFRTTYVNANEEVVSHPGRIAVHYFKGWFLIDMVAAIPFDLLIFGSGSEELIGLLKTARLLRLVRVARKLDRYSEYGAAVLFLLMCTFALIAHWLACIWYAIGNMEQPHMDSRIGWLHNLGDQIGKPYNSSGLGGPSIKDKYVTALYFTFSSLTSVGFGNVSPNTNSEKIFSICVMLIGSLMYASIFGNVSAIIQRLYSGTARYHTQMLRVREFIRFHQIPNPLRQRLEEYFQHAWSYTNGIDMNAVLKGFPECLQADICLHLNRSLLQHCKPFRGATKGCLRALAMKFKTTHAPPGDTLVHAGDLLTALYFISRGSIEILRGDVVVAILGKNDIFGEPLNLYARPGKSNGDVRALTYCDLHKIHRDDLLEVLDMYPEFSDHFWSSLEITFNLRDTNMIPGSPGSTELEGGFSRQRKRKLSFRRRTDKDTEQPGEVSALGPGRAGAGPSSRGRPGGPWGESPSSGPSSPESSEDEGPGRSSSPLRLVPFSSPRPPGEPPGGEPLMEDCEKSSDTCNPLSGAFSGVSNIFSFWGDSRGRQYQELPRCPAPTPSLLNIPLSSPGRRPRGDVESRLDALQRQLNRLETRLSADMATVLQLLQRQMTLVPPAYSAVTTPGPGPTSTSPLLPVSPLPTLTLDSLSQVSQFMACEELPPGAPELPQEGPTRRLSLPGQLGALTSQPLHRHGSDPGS
# T1 sequence (P31751 with tags, fused parts or gaps limits assumed): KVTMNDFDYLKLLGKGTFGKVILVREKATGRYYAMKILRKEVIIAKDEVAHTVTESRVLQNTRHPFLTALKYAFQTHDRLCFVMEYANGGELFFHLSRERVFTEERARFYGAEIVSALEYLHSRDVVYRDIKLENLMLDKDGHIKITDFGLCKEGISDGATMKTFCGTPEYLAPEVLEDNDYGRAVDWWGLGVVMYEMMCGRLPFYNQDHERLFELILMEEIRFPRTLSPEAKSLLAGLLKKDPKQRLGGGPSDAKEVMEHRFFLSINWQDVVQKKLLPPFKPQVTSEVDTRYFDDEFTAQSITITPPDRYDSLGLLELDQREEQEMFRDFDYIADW
# PKB, sequence (P31751 whole entry, the tested form may be a part): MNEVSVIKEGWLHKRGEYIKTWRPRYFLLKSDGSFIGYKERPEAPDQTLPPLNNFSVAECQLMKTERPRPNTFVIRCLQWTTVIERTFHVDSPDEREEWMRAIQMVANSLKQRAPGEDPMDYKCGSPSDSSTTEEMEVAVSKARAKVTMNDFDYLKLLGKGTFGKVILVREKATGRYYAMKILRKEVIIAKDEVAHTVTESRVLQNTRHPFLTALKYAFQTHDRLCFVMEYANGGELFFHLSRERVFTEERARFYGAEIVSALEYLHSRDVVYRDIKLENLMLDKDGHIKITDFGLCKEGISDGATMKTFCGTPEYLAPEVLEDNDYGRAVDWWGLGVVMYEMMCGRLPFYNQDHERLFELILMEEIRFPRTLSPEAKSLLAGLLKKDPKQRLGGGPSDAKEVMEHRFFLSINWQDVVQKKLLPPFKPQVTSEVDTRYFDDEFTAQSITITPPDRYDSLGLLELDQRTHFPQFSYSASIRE
compound,measurement,setting,value
"NCC(O)(c1ccc(Cl)cc1)c1ccc(I)cc1 (racemic) [compound of the formula (12), 2-amino-1-(4-chloro-phenyl)-1-[4-iodo-phenyl]-ethanol]",activity against the kinase PKB,[1],have activity against the kinase PKB
"CNC[C@@H](c1ccc(Cl)cc1)c1ccc(-c2cn[nH]c2)cc1 (single isomer, unassigned) [Isomer A]",fold more active against PKB than its antipode,[2],10 fold
"NC[C@@H](c1ccc(Cl)cc1)c1ccc(-c2cn[nH]c2)cc1 (single isomer, unassigned) [Isomer C]",fold more active against PKB than its antipode,[2],about 10 fold
same,activity in mechanistic cellular ELISA assay,[3],essentially equipotent
"NC[C@H](c1ccc(Cl)cc1)c1ccc(-c2cn[nH]c2)cc1 (single isomer, unassigned) [Isomer D]",activity in mechanistic cellular ELISA assay,[3],essentially equipotent
C[C@@H](N)[C@H]1CC[C@H](C(=O)Nc2ccncc2)CC1 [Example Y-27632],effective doses for the use of this compound,[4],approximately 30 uM
"NC[C@](O)(c1ccc(Cl)cc1)c1ccc(-c2cn[nH]c2)cc1 [R-enantiomer, (R)-2-amino-1-(4-chloro-phenyl)-1-[4-(1H-pyrazol-4-yl)-phenyl]-ethanol]",IC50,"[5]; isolated enzyme, read-out: IC50 against PKA",0.25 µM
same,IC50,"[3]; Homo sapiens, U-87 MG, U87MG cells, 1 hour with inhibitor",> 50 µM
same,activity in mechanistic cellular ELISA assay,[3],no measurable activity
"NC[C@@](O)(c1ccc(Cl)cc1)c1ccc(-c2cn[nH]c2)cc1 [compound of formula (I), (S)-2-amino-1-(4-chloro-phenyl)-1-[4-(1H-pyrazol-4-yl)-phenyl]-ethanol]",inhibition at 0.03 µM,[5]; at a concentration of 0.03 μM,44%
same,IC50,[6],> 10 µM
same,IC50,[7],> 10 µM
same,IC50,[8],> 10 µM
same,IC50,[9],> 10 µM
same,activity in mechanistic cellular ELISA assay,[3],good activity
same,IC50,[10],< 0.01 µM
same,IC50,[11],0.012 µM
same,hERG ion channel blocking activity,[12],negligible

# — patent US8497294B2, “Compositions comprising (S)-2-amino-1-(4-chlorophenyl)-1-[4-(1H-pyrazol-4-yl)-phenyl]-ethanol as modulator of protein kinases” (Astex Therapeutics Limited, priority 2007, dated 2013)
